# Test results as given in ChEMBL document CHEMBL1201862, “PubChem BioAssay data set” (2004).
# Active and inactive are the calls of the source.
# Experiments:
# [1] = Luminescence Cell-Based Dose Retest to Confirm Inhibitors of Cancer Stem Cells. [Related pubchem assays (depositor defined):AID2717, AID2721]; type: functional; settings: Homo sapiens
# [2] = target: T1, CAAX prenyl protease 2 (Saccharomyces cerevisiae S288c, UniProt Q03530); type: biochemical
# T1 sequence (Q03530 whole entry): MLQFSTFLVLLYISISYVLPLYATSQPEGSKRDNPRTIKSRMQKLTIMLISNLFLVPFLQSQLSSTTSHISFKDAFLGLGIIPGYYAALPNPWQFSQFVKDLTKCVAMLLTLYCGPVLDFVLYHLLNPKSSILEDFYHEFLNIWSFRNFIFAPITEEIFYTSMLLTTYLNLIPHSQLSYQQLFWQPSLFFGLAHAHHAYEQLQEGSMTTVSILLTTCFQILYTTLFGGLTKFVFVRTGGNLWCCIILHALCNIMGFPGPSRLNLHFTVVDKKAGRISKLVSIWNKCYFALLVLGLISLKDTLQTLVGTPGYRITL
# [3] = mammalian cell cytotoxicity, dose response, cytotoxicity control, plate reader, cherry-pick samples (AID 504397); type: functional, cell-based
# [4] = Luminescence Cell-Based Dose Response HTS to Identify Inhibitors of Luciferase Translation or Activity in H4-C Neuroglioblastoma Cells. [Related pubchem assays: 1813 (Primary HTS), 1827 (Project Summary)]; type: functional
# [5] = Luminescence Cell-Based Dose Response HTS to Identify Activators of Luciferase Translation or Activity in H4-C Neuroglioblastoma Cells. [Related pubchem assays: 1829 (Project Summary), 1814 (Primary HTS)]; type: functional
# [6] = inhibitors of firefly luciferase expression or activity, dose response, H4 neuroglioma cells, luminescence (AID 1990); type: functional, cell-based
# [7] = Luminescence Cell-Based Dose Retest to Confirm Activators of 5'UTR Stem-Loop Driven Alpha-Synuclein mRNA Translation in H4 Neuroglioblastoma Cells. [Related pubchem assays (depositor defined):AID1813, AID1829]; type: functional
# [8] = Luminescence Cell-Based Dose Response HTS to Identify Activators of 5'UTR Stem-Loop Driven Prion Protein mRNA Translation in H4-C Neuroglioblastoma Cells. [Related pubchem assays: 1829 (Project Summary), 1814 (Primary HTS)]; type: functional
# [9] = Luminescence Cell-Based Dose HTS Response to Identify Inhibitors of 5'UTR Stem-Loop Driven Prion Protein mRNA Translation in H4-C Neuroglioblastoma Cells. [Related pubchem assays (depositor defined):AID1814, AID1827]; type: functional
# [10] = Luminescence Cell-Based Dose Response HTS to Identify Inhibitors of 5'UTR Stem-Loop Driven Prion Protein mRNA Translation in H4 Neuroglioblastoma Cells. [Related pubchem assays: 1827 (Project Summary), 1813 (Primary HTS)]; type: functional
# [11] = inhibitors of SNCA 5'UTR-driven reporter translation, confirmation, H4 neuroglioma cells, luminescence (AID 1988); type: functional, cell-based
# [12] = Luminescence Cell-Based Dose Confirmation HTS to Identify Inhibitors of 5'UTR Stem-Loop Driven Alpha-Synuclein mRNA Translation in H4 Neuroglioblastoma Cells. [Related pubchem assays: 1827 (Project Summary), 1813 (Primary HTS)]; type: functional
# [13] = target: T2, Sphingosine 1-phosphate receptor 4 (Homo sapiens, UniProt O95977); assay: Late-stage fluorescence dose response cell-based assay to identify agonists of the Sphingosine 1-Phosphate Receptor 4 (S1P4): purchased compounds EC50. [Related pubchem assays (depositor defined):AID1509, AID1523, AID1563, AID1686, AID1701, AID1801]; type: functional
# T2 sequence (O95977 whole entry): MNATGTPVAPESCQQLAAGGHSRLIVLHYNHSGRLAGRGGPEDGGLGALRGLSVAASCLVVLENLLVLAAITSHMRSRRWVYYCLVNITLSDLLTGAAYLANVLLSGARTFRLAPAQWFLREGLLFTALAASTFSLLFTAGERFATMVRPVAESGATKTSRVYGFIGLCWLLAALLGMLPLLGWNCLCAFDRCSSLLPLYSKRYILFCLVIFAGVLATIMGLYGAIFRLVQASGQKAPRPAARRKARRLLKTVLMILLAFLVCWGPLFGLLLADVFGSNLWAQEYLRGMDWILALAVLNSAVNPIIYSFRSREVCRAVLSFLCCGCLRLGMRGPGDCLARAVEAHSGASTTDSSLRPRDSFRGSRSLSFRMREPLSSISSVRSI
# [14] = target: T3, Runt-related transcription factor 1/Core-binding factor subunit beta (Homo sapiens, UniProt Q01196+Q13951); assay: inhibitors of RUNX1 Runt–CBFb-SMMHC binding, primary screen, biochemical, FRET, Cerulean-Runt, Venus-CBFb-SMMHC, uHTS (AID 1434); type: protein assay;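 also: partner is the CBFb-SMMHC leukemia fusion protein rather than wild-type CBFb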
# [15] = target: T3, Runt-related transcription factor 1/Core-binding factor subunit beta; assay: inhibitors of RUNX1 Runt–CBFb-SMMHC binding, biochemical, TR-FRET (AID 1438); type: protein assay
# [16] = target: Kappa-type opioid receptor (Homo sapiens, UniProt P41145); assay: SAR analysis of small molecule agonists of the kappa opioid receptor via a luminescent beta-arrestin assay - Set 3. [Related pubchem assays (depositor defined):AID1777, AID1785, AID1786, AID1966, AID2133, AID2136, AID2284, AID2500]; type: functional
# [17] = target: Troponin, cardiac muscle (Homo sapiens, UniProt P19429+P45379+P63316); assay: Fluorescence-based biochemical high throughput dose response assay for activators of the calcium sensitivity of cardiac Regulated Thin Filaments (RTF). [Related pubchem assays (depositor defined):AID493008, AID493018, AID504382, AID504383]; type: protein-complex assay
# [18] = decrease of PhoP-driven GFP reporter signal, S. Typhimurium, dose response, PhoP regulon inhibitor project, purified and synthesized compounds, set 2 (AID 2831); type: functional
# [19] = target: T4, Cannabinoid receptor 2 (Homo sapiens, UniProt P34972); assay: SAR analysis of antagonists of the Cannabinoid Receptor 2 using an Image-Based Assay - Set 2. [Related pubchem assays (depositor defined):AID1961, AID1965]; type: functional
# [20] = target: T5, G-protein coupled receptor 55 (Homo sapiens, UniProt Q9Y2T6); assay: SAR analysis of selective Agonists of GPR55 using an Image-Based Assay - Set 2. [Related pubchem assays (depositor defined):AID1961, AID1965]; type: functional
# [21] = target: T4, Cannabinoid receptor 2; assay: SAR analysis of agonists of the Cannabinoid Receptor 2 using an Image-Based Assay - Set 2. [Related pubchem assays (depositor defined):AID1961, AID1965]; type: functional
# [22] = target: T6, G-protein coupled receptor 35 (Homo sapiens, UniProt Q9HC97); assay: SAR analysis of Agonists of the GPR35 Receptor using an Image-Based Assay - Set 3. [Related pubchem assays (depositor defined):AID1961, AID1965]; type: functional
# [23] = target: T7, Cannabinoid receptor 1 (Homo sapiens, UniProt P21554); assay: SAR analysis of antagonists of the Cannabinoid Receptor 1 using an Image-Based Assay - Set 3. [Related pubchem assays (depositor defined):AID1961, AID1965]; type: functional
# [24] = target: T7, Cannabinoid receptor 1; assay: SAR analysis of agonists of the Cannabinoid Receptor 1 using an Image-Based Assay - Set 3. [Related pubchem assays (depositor defined):AID1961, AID1965]; type: functional
# [25] = target: T6, G-protein coupled receptor 35; assay: SAR analysis of Antagonists of the GPR35 Receptor using an Image-Based Assay - Set 4. [Related pubchem assays (depositor defined):[…]]; type: functional
# [26] = target: Luciferin 4-monooxygenase (Photinus pyralis, UniProt P08659); assay: firefly luciferase enzyme inhibitors, dose response, biochemical, luminescence (AID 1891)
# [27] = Luminescence Cell-Based Dose Confirmation HTS to Identify Inhibitors of Platelet Dense Granule Release. [Related pubchem assays: 1663 (Primary HTS), 1678 (Summary of Project)]; type: functional
# [28] = target: Hexokinase HKDC1 (Homo sapiens, UniProt Q2TB90); assay: HKDC1 hexokinase activators, dose response, biochemical, W721R variant (AID 504730); type: functional
# [29] = target: Nonstructural protein 1 (Influenza A virus, UniProt Q194T2); type: functional, Influenza A virus (A/California/07/2009(H1N1))
# [30] = target: Hexokinase-1 (Homo sapiens, UniProt P19367); assay: hexokinase 1 activators, dose response, selectivity assay for HKDC1 activator project, biochemical (AID 504762); type: functional
# [31] = HeLa cell cytotoxicity, dose response, cytotoxicity control for MgcRacGAP inhibitor project (AID 624300); type: functional
# [32] = target: T8, Rac GTPase-activating protein 1 (Homo sapiens, UniProt Q9H0H5); assay: MgcRacGAP GTPase-activating activity inhibitors, confirmation, biochemical, ADP Hunter fluorescence, primary and confirmatory (AID 624330); type: functional
# T8 sequence (Q9H0H5 whole entry): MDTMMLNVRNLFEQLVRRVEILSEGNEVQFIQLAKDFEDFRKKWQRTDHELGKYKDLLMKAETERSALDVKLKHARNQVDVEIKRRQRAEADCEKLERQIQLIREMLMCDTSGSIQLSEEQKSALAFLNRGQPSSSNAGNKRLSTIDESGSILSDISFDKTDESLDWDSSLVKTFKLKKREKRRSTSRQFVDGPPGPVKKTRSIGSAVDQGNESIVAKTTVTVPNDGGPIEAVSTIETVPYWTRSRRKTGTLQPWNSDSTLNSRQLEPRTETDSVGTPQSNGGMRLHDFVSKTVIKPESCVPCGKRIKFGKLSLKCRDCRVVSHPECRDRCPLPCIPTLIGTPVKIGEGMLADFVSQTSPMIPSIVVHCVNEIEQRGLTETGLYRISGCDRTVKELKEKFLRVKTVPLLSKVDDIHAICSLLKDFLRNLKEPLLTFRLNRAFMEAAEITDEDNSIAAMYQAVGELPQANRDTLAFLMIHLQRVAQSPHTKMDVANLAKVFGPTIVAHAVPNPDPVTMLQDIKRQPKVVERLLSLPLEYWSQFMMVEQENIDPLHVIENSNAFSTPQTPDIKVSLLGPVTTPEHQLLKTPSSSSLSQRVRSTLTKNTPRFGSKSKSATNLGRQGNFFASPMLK
# [33] = target: T5, G-protein coupled receptor 55; assay: GPR55 antagonists blocking LPI-driven arrestin recruitment, primary screen, imaging, U2OS, beta-arrestin-GFP, LPI agonist (AID 2013); type: functional;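 also: antagonist potency measured as reduced agonist-driven arrestin aggregation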
# [34] = target: T7, Cannabinoid receptor 1; assay: SAR analysis of antagonists of the Cannabinoid Receptor 1 using an Image-Based Assay - Set 2. [Related pubchem assays (depositor defined):AID2013, AID2026]; type: functional
# [35] = target: T6, G-protein coupled receptor 35; assay: SAR analysis of Agonists of the GPR35 Receptor using an Image-Based Assay - Set 2. [Related pubchem assays (depositor defined):AID2013, AID2026]; type: functional
# [36] = target: T4, Cannabinoid receptor 2; assay: SAR analysis of antagonists of the Cannabinoid Receptor 2 using an Image-Based Assay. [Related pubchem assays (depositor defined):AID2013, AID2026]; type: functional
# [37] = target: T7, Cannabinoid receptor 1; assay: SAR analysis of agonists of the Cannabinoid Receptor 1 using an Image-Based Assay - Set 2. [Related pubchem assays (depositor defined):AID2013, AID2026]; type: functional
# [38] = target: T6, G-protein coupled receptor 35; assay: SAR analysis of Antagonists of the GPR35 Receptor using an Image-Based Assay - Set 3. [Related pubchem assays (depositor defined):AID2013, AID2026]; type: functional
# [39] = target: T5, G-protein coupled receptor 55; assay: GPR55 antagonist potency of analogs, SAR follow-up, imaging, U2OS, beta-arrestin-GFP, LPI agonist, set 2 (AID 2820); type: functional
# [40] = target: T4, Cannabinoid receptor 2; assay: SAR analysis of agonists of the Cannabinoid Receptor 2 using an Image-Based Assay. [Related pubchem assays (depositor defined):AID2013, AID2026]; type: functional
smiles,measurement,setting,value
Clc1cccc(CN2CCc3c([nH]c4ccccc34)C2)c1Cl,AC50,[1],4.83 µM (active)
same,AC50,[2],3.27 µM (active)
same,AC50,[3],117 µM (active)
COc1ccc(/C=N/NC(=O)c2cc3c(OC)ccc(OC)c3[nH]2)cc1O,EC50,[4],0.747 µM (active)
same,EC50,[5],2.51 µM (inconclusive)
same,EC50,[6],9.89 µM (active)
same,EC50,[7],29.5 µM (inconclusive)
same,EC50,[8],0.765 µM (inconclusive)
same,EC50,[9],1.75 µM (active)
same,EC50,[10],13.3 µM (active)
same,EC50,[11],0.291 µM (active)
same,EC50,[12],2.9 µM (active)
Cc1nn(Cc2ccccc2)c(Cl)c1C(=O)OC(C)C#N (stereo not given),EC50,[13],> 50 µM (inactive)
Cc1ccc(S(=O)(=O)c2c(N)n(Cc3ccco3)c3nc4ccccc4nc23)cc1,IC50,[14],> 100 µM (inactive)
same,IC50,[15],> 100 µM (inactive)
FC(F)(F)c1cc(CSc2nnc(-c3ccccn3)n2Cc2cccnc2)ccc1Cl,EC50,[16],0.501 µM (active)
O=C(NC1CCCCC1)c1cccc2c1C(=O)c1ccc(N3CCCC3)cc1S2(=O)=O,EC50,[17],6.65 µM (active)
S=C(NCc1ccc(Cl)cc1)Nc1ccc(Cl)cc1,IC50,[18],> 150 µM (active)
Cc1ccc(Cl)cc1N1CCN(C(=O)c2cc(S(=O)(=O)N(C)C)ccc2N2CCCC2)CC1,IC50,[19],> 32 µM (inactive)
same,EC50,[20],8.84 µM (active)
same,EC50,[21],> 32 µM (inactive)
same,EC50,[22],> 32 µM (inactive)
same,IC50,[23],> 32 µM (inactive)
same,EC50,[24],> 32 µM (inactive)
same,IC50,[25],> 32 µM (inactive)
Cc1nonc1C(=O)N/N=C/c1ccc(O)cc1O,EC50,[26],0.667 µM (active)
same,EC50,[27],0.136 µM (active)
same,EC50,[28],> 80 µM (inactive)
same,IC50,[29],4.75 µM (active)
same,EC50,[30],> 80 µM (inactive)
same,CC50,[31],100 µM (active)
same,IC50,[32],69.4 µM (active)
Cc1cccc2c1NC(=O)C2(c1ccc(O)cc1)c1ccc(O)cc1,IC50,[33],2.53 µM (active)
same,IC50,[34],31.3 µM (inactive)
same,EC50,[35],> 32 µM (inactive)
same,IC50,[36],> 32 µM (inactive)
same,EC50,[37],> 32 µM (inactive)
same,IC50,[38],7.66 µM (active)
same,IC50,[39],0.125 µM (active)
same,EC50,[40],> 32 µM (inactive)
